Measurements: patent publication US10618918B2, “Substituted boronic acids as antimicrobials” (priority 2015, dated 2020)

Experiments:
KP1005 CTX-M-14 = test: Tigemonam potentiation (MPC@4), strain KP1005 CTX-M-14; conditions: minimum BLI concentration inhibiting growth with tigemonam 4 μg/mL; tested up to 40 μg/mL
KP1009 CTX-M-15 = test: Aztreonam potentiation (MPC@4), strain KP1009 CTX-M-15; conditions: minimum BLI concentration inhibiting growth with aztreonam 4 μg/mL; tested up to 40 μg/mL
KP1004 KPC-2 [1] = test: Biapenem potentiation (MPC@1), strain KP1004 KPC-2; type: cell-based; conditions: minimum BLI concentration inhibiting growth with biapenem 1 μg/mL; tested up to 40 μg/mL
Protocol: (§1) Biapenem was present in the test medium at 1 μg/mL. […] Table 3 summarizes the BLI potency of biapenem potentiation (MPC@1) for two strains overexpressing class A (KPC) and class D (OXA-48) carbapenemases. Biapenem MIC for each strain is also shown.

AB1053 OXA-72 = test: Meropenem potentiation (MPC@8), strain AB1053 OXA-72; type: cell-based, Acinetobacter baumannii; conditions: minimum BLI concentration inhibiting growth with meropenem 8 μg/mL; tested up to 20 μg/mL
ec308 SHV-5 = test: Aztreonam potentiation (MPC@4), strain ec308 SHV-5; conditions: minimum BLI concentration inhibiting growth with aztreonam 4 μg/mL; tested up to 40 μg/mL
ECL1002 = test: Aztreonam potentiation (MPC@4), strain ECL1002; conditions: minimum BLI concentration inhibiting growth with aztreonam 4 μg/mL; tested up to 40 μg/mL
EC1010 CMY-6 = test: Aztreonam potentiation (MPC@4), strain EC1010 CMY-6; conditions: minimum BLI concentration inhibiting growth with aztreonam 4 μg/mL; tested up to 40 μg/mL
[2] = target: purified class A, C and D enzymes (β-lactamases) (Klebsiella pneumoniae, UniProt Q9F663); test: biochemical; type: biochemical; conditions: purified KPC-2; nitrocefin (NCF) as reporter substrate
[3] = target: purified class A, C and D enzymes (β-lactamases) (Enterobacter cloacae, UniProt P05364); test: biochemical; type: biochemical
purified class A, C and D enzymes (β-lactamases) (Enterobacter cloacae, UniProt P05364), sequence (P05364 21-381): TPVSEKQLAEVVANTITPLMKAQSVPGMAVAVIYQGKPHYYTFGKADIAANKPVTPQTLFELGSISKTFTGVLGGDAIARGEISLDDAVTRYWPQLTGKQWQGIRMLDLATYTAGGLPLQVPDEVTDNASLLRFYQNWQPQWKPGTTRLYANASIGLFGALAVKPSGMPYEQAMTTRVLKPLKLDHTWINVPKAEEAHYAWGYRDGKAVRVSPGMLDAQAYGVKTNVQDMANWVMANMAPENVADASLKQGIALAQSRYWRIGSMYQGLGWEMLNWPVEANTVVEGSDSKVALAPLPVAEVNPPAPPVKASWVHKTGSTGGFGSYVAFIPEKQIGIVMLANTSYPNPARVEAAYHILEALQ

[4] = target: purified class A, C and D enzymes (β-lactamases) (Escherichia coli, UniProt Q9L5C7); test: biochemical; type: biochemical; conditions: purified CTX-M-14; nitrocefin (NCF) as reporter substrate
purified class A, C and D enzymes (β-lactamases) (Escherichia coli, UniProt Q9L5C7), sequence (Q9L5C7 entry or part of it): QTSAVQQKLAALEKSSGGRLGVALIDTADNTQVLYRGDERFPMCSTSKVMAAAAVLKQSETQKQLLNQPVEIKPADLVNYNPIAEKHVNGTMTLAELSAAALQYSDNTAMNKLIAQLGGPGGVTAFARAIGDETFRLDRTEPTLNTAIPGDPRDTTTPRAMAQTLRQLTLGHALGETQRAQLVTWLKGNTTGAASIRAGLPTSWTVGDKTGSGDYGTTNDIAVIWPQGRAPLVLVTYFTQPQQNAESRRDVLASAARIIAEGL

[5] = target: T1, purified class A, C and D enzymes (β-lactamases) (Pseudomonas aeruginosa, UniProt P24735); test: biochemical; type: biochemical
T1 construct: rows headed: Ki (Pa-AmpC, NCF), uM; other: purified Pa-AmpC; nitrocefin (NCF) as reporter substrate
T1 sequence (P24735 whole entry): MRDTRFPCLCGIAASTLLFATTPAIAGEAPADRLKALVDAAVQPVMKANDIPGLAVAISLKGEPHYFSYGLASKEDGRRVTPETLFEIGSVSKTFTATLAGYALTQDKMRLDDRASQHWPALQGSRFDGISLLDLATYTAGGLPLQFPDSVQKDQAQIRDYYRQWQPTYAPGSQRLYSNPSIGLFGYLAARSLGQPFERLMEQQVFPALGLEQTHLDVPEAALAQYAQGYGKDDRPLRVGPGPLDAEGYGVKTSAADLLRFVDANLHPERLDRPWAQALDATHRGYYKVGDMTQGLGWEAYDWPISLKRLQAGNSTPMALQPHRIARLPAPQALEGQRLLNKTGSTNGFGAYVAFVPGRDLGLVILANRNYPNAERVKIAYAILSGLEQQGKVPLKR

[6] = target: T2, purified class A, C and D enzymes (β-lactamases) (Acinetobacter baumannii, UniProt Q9L4P2); test: biochemical; type: biochemical; conditions: purified OXA-23; nitrocefin (NCF) as reporter substrate
T2 construct: rows headed: Ki (OXA-23, NCF), uM; other: purified OXA-23; nitrocefin (NCF) as reporter substrate
T2 sequence (Q9L4P2 whole entry): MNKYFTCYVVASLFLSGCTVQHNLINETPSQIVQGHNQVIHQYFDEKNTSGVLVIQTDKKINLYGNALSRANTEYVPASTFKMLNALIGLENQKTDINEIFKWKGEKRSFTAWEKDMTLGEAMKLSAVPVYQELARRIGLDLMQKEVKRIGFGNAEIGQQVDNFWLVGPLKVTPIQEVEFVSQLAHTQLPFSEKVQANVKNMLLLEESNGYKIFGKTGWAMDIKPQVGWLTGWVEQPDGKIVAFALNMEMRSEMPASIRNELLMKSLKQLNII

[7] = target: purified class A, C and D enzymes (β-lactamases) (Klebsiella pneumoniae, UniProt Q6XEC0); test: biochemical; type: biochemical; conditions: purified OXA-48; nitrocefin (NCF) as reporter substrate
KP1086 OXA-48 = test: Biapenem potentiation (MPC@1), strain KP1086 OXA-48; type: cell-based; conditions: minimum BLI concentration inhibiting growth with biapenem 1 μg/mL; tested up to 40 μg/mL
Protocol: as §1

KP1010 SHV-12 = test: Aztreonam potentiation (MPC@4), strain KP1010 SHV-12; conditions: minimum BLI concentration inhibiting growth with aztreonam 4 μg/mL; tested up to 40 μg/mL
AB1054 OXA-23 = test: Meropenem potentiation (MPC@8), strain AB1054 OXA-23; type: cell-based, Acinetobacter baumannii; conditions: minimum BLI concentration inhibiting growth with meropenem 8 μg/mL; tested up to 20 μg/mL
KP1004 KPC-2 [8] = test: Aztreonam potentiation (MPC@4), strain KP1004 KPC-2; conditions: minimum BLI concentration inhibiting growth with aztreonam 4 μg/mL; tested up to 40 μg/mL
ec302 TEM-10 = test: Aztreonam potentiation (MPC@4), strain ec302 TEM-10; conditions: minimum BLI concentration inhibiting growth with aztreonam 4 μg/mL; tested up to 40 μg/mL

Compound | TIG MPC4 CTX-M-14 KP1005 (KP1005 CTX-M-14) | AZT MPC4 CTX-M-15 KP1009 (KP1009 CTX-M-15) | BPM MPC1 KP1004 KPC-2 (KP1004 KPC-2 [1]) | MPM MPC8 AB1053 OXA-72 (AB1053 OXA-72) | AZT MPC4 SHV-5 ec308 (ec308 SHV-5) | AZT MPC4 ECL1002 (ECL1002) | AZT MPC4 CMY-6 EC1010 (EC1010 CMY-6) | Ki (KPC-2, NCF), uM [2] | Ki (P99, NCF), uM [3] | Ki (CTX-M-14, NCF), uM [4] | Ki [5] [nM] | Ki [6] [nM] | Ki (OXA-48, NCF), uM [7] | BPM MPC1 OXA-48 KP1086 (KP1086 OXA-48) | AZT MPC4 SHV-12 KP1010 (KP1010 SHV-12) | MPM MPC8 AB1054 OXA-23 (AB1054 OXA-23) | AZT MPC4 KPC-2 KP1004 (KP1004 KPC-2 [8]) | AZT MPC4 TEM-10 ec302 (ec302 TEM-10)
O=C([O-])c1c(OCc2ccncc2)ccc2c1O[B-](O)(O)CC2.[Na+].[Na+] [Compound 28, Disodium; 4,4-dihydroxy-8-(4-pyridylmethoxy)-5-oxa-4-boranuidabicyclo[4.4.0]deca-1(6),7,9-triene-7-carboxylate] | Z (Z = MPC@4 > 20 μg/mL) | Y (Y = 5 μg/mL < MPC@4 ≤ 20 μg/mL) | X (X = MPC@1 ≤ 5 μg/mL) | X (X = MPC@1 ≤ 5 μg/mL) | Y (Y = 5 μg/mL < MPC@4 ≤ 20 μg/mL) | Y (Y = 5 μg/mL < MPC@4 ≤ 20 μg/mL) | X (X = MPC@4 ≤ 5 μg/mL) | X (X = Ki ≤ 0.1 μM) | X (key: X = Ki ≤ 0.1 μM; Y = 0.1 μM < Ki ≤ 1 μM; Z = Ki > 1 μM) | X (X = Ki ≤ 0.1 μM) | < 100 | < 100 | X (X = Ki ≤ 0.1 μM) | X (X = MPC@1 ≤ 5 μg/mL) | X (X = MPC@4 ≤ 5 μg/mL) | X (X = MPC@1 ≤ 5 μg/mL) | X (X = MPC@4 ≤ 5 μg/mL) | X (X = MPC@4 ≤ 5 μg/mL)
O=C([O-])c1c(C(F)F)ccc2c1O[B-](O)(O)CC2.[Na+].[Na+] [Compound 50, Disodium; 8-(difluoromethyl)-4,4-dihydroxy-5-oxa-4-boranuidabicyclo[4.4.0]deca-1(6),7,9-triene-7-carboxylate] | X (X = MPC@4 ≤ 5 μg/mL) | X (X = MPC@4 ≤ 5 μg/mL) | X (X = MPC@1 ≤ 5 μg/mL) | Y (Y = 5 μg/mL < MPC@1 ≤ 20 μg/mL) | X (X = MPC@4 ≤ 5 μg/mL) | X (X = MPC@4 ≤ 5 μg/mL) | X (X = MPC@4 ≤ 5 μg/mL) | X (X = Ki ≤ 0.1 μM) | X (key: X = Ki ≤ 0.1 μM; Y = 0.1 μM < Ki ≤ 1 μM; Z = Ki > 1 μM) | X (X = Ki ≤ 0.1 μM) | < 100 | < 100 | X (X = Ki ≤ 0.1 μM) | X (X = MPC@1 ≤ 5 μg/mL) | X (X = MPC@4 ≤ 5 μg/mL) | Y (Y = 5 μg/mL < MPC@1 ≤ 20 μg/mL) | X (X = MPC@4 ≤ 5 μg/mL) | X (X = MPC@4 ≤ 5 μg/mL)
Nc1nnc(SCc2ccc3c(c2C(=O)[O-])O[B-](O)(O)CC3)s1.[Na+].[Na+] [Compound 22, Disodium; 8-[(5-amino-1,3,4-thiadiazol-2-yl)sulfanylmethyl]-4,4-dihydroxy-5-oxa-4-boranuidabicyclo[4.4.0]deca-1(6),7,9-triene-7-carboxylate] | Z (Z = MPC@4 > 20 μg/mL) | Y (Y = 5 μg/mL < MPC@4 ≤ 20 μg/mL) | X (X = MPC@1 ≤ 5 μg/mL) | Z (Z = MPC@1 > 20 μg/mL) | Y (Y = 5 μg/mL < MPC@4 ≤ 20 μg/mL) | Y (Y = 5 μg/mL < MPC@4 ≤ 20 μg/mL) | X (X = MPC@4 ≤ 5 μg/mL) | X (X = Ki ≤ 0.1 μM) | X (key: X = Ki ≤ 0.1 μM; Y = 0.1 μM < Ki ≤ 1 μM; Z = Ki > 1 μM) | X (X = Ki ≤ 0.1 μM) | < 100 | < 100 | X (X = Ki ≤ 0.1 μM) | Y (Y = 5 μg/mL < MPC@1 ≤ 20 μg/mL) | X (X = MPC@4 ≤ 5 μg/mL) | Y (Y = 5 μg/mL < MPC@1 ≤ 20 μg/mL) | X (X = MPC@4 ≤ 5 μg/mL) | X (X = MPC@4 ≤ 5 μg/mL)
